TGI and GI50 data for 8 molecules are collected here from PubChem BioAssay (NCI).

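How tested: cells in 96-well plates exposed to compound for 48 hours at five concentrations. Abbreviation: GI50, concentration required for 50% inhibition of growth. TGI marks complete inhibition of growth.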

Some test systems named below: A549 NSCLC; HL-60(TB) leukemia; UO-31 renal; T-47D breast; IGROV1 ovarian; HCT-15 colon; MCF7 breast; SF-539 CNS; M14 melanoma; UACC-62 melanoma; 786-0 renal; HCC-2998 colon; CCRF-CEM leukemia; OVCAR-4 ovarian; LOX IMVI melanoma; A498 renal; OVCAR-5 ovarian.
What all share (assay): inhibition of tumour cell growth, NCI panel, 48 h

For `N#Cc1c(=O)c2ccccc2n2c1[nH]c1ccccc12`, the TGI in the assay with A549 NSCLC is > 100 µM; with HL-60(TB) leukemia it was > 100 µM; in the assay with UO-31 renal it was > 100 µM; with T-47D breast it was 79.7 µM; with IGROV1 ovarian, > 100 µM; in the assay with HCT-15 colon, > 100 µM. Also, the TGI in the assay on MCF7 breast, in the assay on SF-539 CNS, in the assay on M14 melanoma, in the assay with UACC-62 melanoma, with 786-0 renal and in the assay on HCC-2998 colon was > 100 µM each time. The TGI in the assay with CCRF-CEM leukemia was 79.6 µM; in the assay on OVCAR-4 ovarian, > 100 µM; in the assay on LOX IMVI melanoma it was > 100 µM; in the assay on A498 renal, > 100 µM; in the assay on OVCAR-5 ovarian, > 100 µM.

For `CCCCCCc1ccc(C(=O)NO)cc1`, the TGI in the assay with A549 NSCLC was > 100 µM; in the assay with HL-60(TB) leukemia, 53.8 µM; in the assay with UO-31 renal, 48.7 µM; with T-47D breast, 82.9 µM; in the assay with IGROV1 ovarian it was > 100 µM; with HCT-15 colon, > 100 µM. Further, the TGI in the assay with MCF7 breast is > 100 µM; in the assay on SF-539 CNS, > 100 µM; in the assay on M14 melanoma, > 100 µM; in the assay on UACC-62 melanoma it was 66.6 µM; with 786-0 renal, 46.6 µM; in the assay with HCC-2998 colon it was > 100 µM. For the same molecule, the TGI was 52.8 µM with CCRF-CEM leukemia; 84.4 µM with OVCAR-4 ovarian; 76.9 µM with LOX IMVI melanoma; 81.7 µM in the assay with A498 renal; > 100 µM with OVCAR-5 ovarian.

For `N#CC1C(=O)SC2c3ccccc3C(=O)c3ccccc3C12` (centres undefined), the TGI in the assay on A549 NSCLC, with HL-60(TB) leukemia, in the assay on UO-31 renal, in the assay on T-47D breast, in the assay on IGROV1 ovarian and with HCT-15 colon was > 10 µM in each case. In addition, the TGI in the assay with MCF7 breast, with SF-539 CNS, with M14 melanoma, with UACC-62 melanoma, in the assay with 786-0 renal and in the assay on HCC-2998 colon was > 10 µM each time. In addition, the TGI with CCRF-CEM leukemia, with OVCAR-4 ovarian, with LOX IMVI melanoma, in the assay on A498 renal and in the assay on OVCAR-5 ovarian was > 10 µM each time.

Regarding `O=C1c2ccccc2CN1c1ccc(OCCN2CCCCC2)cc1`, the TGI with A549 NSCLC, with HL-60(TB) leukemia, with UO-31 renal, with T-47D breast, in the assay on IGROV1 ovarian and in the assay with HCT-15 colon was > 10 µM each time. For the same molecule, the TGI in the assay with MCF7 breast, with SF-539 CNS, in the assay with M14 melanoma, in the assay with UACC-62 melanoma, in the assay on 786-0 renal and in the assay with HCC-2998 colon was > 10 µM in each case. For the same molecule, the TGI in the assay with CCRF-CEM leukemia, in the assay on OVCAR-4 ovarian, in the assay with LOX IMVI melanoma, in the assay on A498 renal and with OVCAR-5 ovarian was > 10 µM each time.

`CN(C)CCCn1c(Cc2ccc(Cl)cc2)nc2cc(C(F)(F)F)ccc21`: the TGI in the assay with A549 NSCLC was found to be 32.8 µM; in the assay on HL-60(TB) leukemia, 61.9 µM; in the assay on UO-31 renal it was 1 µM; in the assay on T-47D breast, 27.2 µM; in the assay on IGROV1 ovarian it was 27.3 µM; in the assay with HCT-15 colon it was 32.8 µM. The TGI in the assay with MCF7 breast turned out to be 27.6 µM; in the assay on SF-539 CNS it was 32.2 µM; in the assay on M14 melanoma it was 25.6 µM; with UACC-62 melanoma it was 31.2 µM; in the assay on 786-0 renal, 27 µM; in the assay on HCC-2998 colon it was 3.85 µM. Besides, the TGI in the assay on CCRF-CEM leukemia is > 43.7 µM; in the assay with OVCAR-4 ovarian, 27.6 µM; in the assay with LOX IMVI melanoma it was 29.7 µM; with A498 renal, 25.5 µM; in the assay with OVCAR-5 ovarian, 32.5 µM.

Consider `O=C1c2ccccc2C(=O)N1CC1S(=O)(=O)OCCOS1(=O)=O`, for which the TGI in the assay on A549 NSCLC, with HL-60(TB) leukemia, with UO-31 renal, in the assay with T-47D breast, in the assay on IGROV1 ovarian and in the assay with HCT-15 colon was > 100 µM throughout. Also, the TGI with MCF7 breast, with SF-539 CNS, in the assay with M14 melanoma, in the assay with UACC-62 melanoma, in the assay on 786-0 renal and in the assay on HCC-2998 colon was > 100 µM in each case. Further, the TGI in the assay with CCRF-CEM leukemia, with OVCAR-4 ovarian, in the assay with LOX IMVI melanoma, with A498 renal and in the assay with OVCAR-5 ovarian was > 100 µM each time.

For `CCOC(=O)NC1C2CC(=O)OC(O2)C1OC(C)=O` (centres undefined), the TGI in the assay with A549 NSCLC, in the assay on HL-60(TB) leukemia, in the assay with UO-31 renal, in the assay with T-47D breast, with IGROV1 ovarian and with HCT-15 colon was > 100 µM throughout. In addition, the TGI with MCF7 breast, in the assay on SF-539 CNS, in the assay with M14 melanoma, with UACC-62 melanoma, in the assay with 786-0 renal and with HCC-2998 colon was > 100 µM throughout. Also, the TGI with CCRF-CEM leukemia, with OVCAR-4 ovarian, in the assay with LOX IMVI melanoma, in the assay with A498 renal and in the assay on OVCAR-5 ovarian was > 100 µM throughout. The GI50 in the assay on HL-60(TB) leukemia, in the assay on T-47D breast and with MCF7 breast was > 100 µM each time.

On to `Cc1cccc2c1C(=O)[C@](C)([C@]1(C)Nc3cccc(C)c3C1=O)N2`, for which the TGI in the assay with A549 NSCLC is > 100 µM; in the assay on HL-60(TB) leukemia it was 0.54 µM; in the assay on UO-31 renal, 51.8 µM; in the assay on T-47D breast, 87.9 µM; with IGROV1 ovarian, > 100 µM; in the assay with HCT-15 colon, > 100 µM. Further, the TGI in the assay on MCF7 breast was > 100 µM; with SF-539 CNS, 74.9 µM; in the assay with M14 melanoma, > 100 µM; in the assay with UACC-62 melanoma, > 100 µM; in the assay on 786-0 renal, > 100 µM; with HCC-2998 colon, > 100 µM. Moreover, the TGI in the assay with CCRF-CEM leukemia is 48.3 µM; in the assay with OVCAR-4 ovarian, > 100 µM; with LOX IMVI melanoma it was > 100 µM; in the assay with A498 renal, > 100 µM; in the assay on OVCAR-5 ovarian, 58 µM.
